Results from ChEMBL document CHEMBL1154918, “Cytotoxic chemical constituents from the roots of Cimicifuga foetida. [corrected]” (J Nat Prod, 2010).

How the values were obtained:
Assay type in all cases: functional, cell-based
HepG2 = assay: Cytotoxicity against human HepG2 cells after 72 hrs by MTT assay; conditions: HepG2, 72 h
MCF7 = assay: Cytotoxicity against human MCF7 cells after 72 hrs by MTT assay; conditions: MCF7, 72 h
HT-29 = assay: Cytotoxicity against human HT-29 cells after 72 hrs by MTT assay; conditions: HT-29, 72 h
MKN-28 = assay: Cytotoxicity against human MKN28 cells after 72 hrs by MTT assay; conditions: MKN-28, 72 h

SMILES | IC50 (HepG2) [µM] | IC50 (MCF7) [µM] | IC50 (HT-29) [µM] | IC50 (MKN-28) [µM]
CC(C)(O)[C@@H]1Cc2c(cc3oc(CO)cc(=O)c3c2O)O1 [NORCIMIFUGIN] | 5.55 | > 100 | > 100 | > 100
C[C@@H]1C[C@H]2O[C@@]3(C[C@@H]2C(C)(C)O)[C@H](O)[C@@]2(C)[C@@H]4CC[C@H]5C(C)(C)[C@@H](O[C@@H]6OC[C@H](O)[C@H](O)[C@H]6O)CC[C@@]56C[C@@]46CC[C@]2(C)[C@@H]13 | 20.4 | > 100 | > 100 | > 100
CC(=O)O[C@@H]1C[C@@]23C[C@@]24CC[C@H](O[C@@H]2OC[C@@H](O)[C@H](O)[C@H]2O)C(C)(C)[C@@H]4CC[C@H]3[C@]2(C)[C@@H](O)[C@@]34C[C@H](C(C)(C)OC(C)=O)[C@@H](C[C@@H](C)[C@@H]3[C@@]12C)O4 | > 100 | 47.5 | > 100 | > 100
CC(=O)O[C@@H]1[C@@H](O)[C@H](O[C@H]2CC[C@]34C[C@]35CC[C@]3(C)[C@H]6[C@H](C)C[C@H]7O[C@@]6(C[C@@H]7C(C)(C)OC(C)=O)[C@H](O)[C@@]3(C)[C@@H]5CC[C@H]4C2(C)C)OC[C@H]1O | 0.71 | > 100 | 28.9 | > 100
CC(=O)O[C@@H]1C[C@@]23C[C@@]24CC[C@H](O)C(C)(C)[C@@H]4CC[C@H]3[C@]2(C)[C@@H](O)[C@@]34C[C@H](C(C)(C)O)[C@@H](C[C@@H](C)[C@@H]3[C@@]12C)O4 | 43.1 | > 100 | > 100 | > 100
CC(=O)O[C@@H]1C[C@@]23C[C@@]24CC[C@H](O)C(C)(C)[C@@H]4CC[C@H]3[C@]2(C)C[C@@H]3O[C@]4(C[C@@H](C)[C@@H]3[C@@]12C)C[C@H](O)[C@@]1(C)O[C@@H]41 [ACTEINOL] | 2.56 | > 100 | > 100 | > 100
CC(=O)O[C@@H]1[C@@H](O)[C@H](O[C@H]2CC[C@]34C[C@]35C[C@@H](OC(C)=O)[C@]3(C)[C@H]6[C@H](C)C[C@]7(C[C@H](O)[C@@]8(C)O[C@@H]78)O[C@H]6C[C@@]3(C)[C@@H]5CC[C@H]4C2(C)C)OC[C@H]1O | 32.1 | > 100 | 50.1 | 53.4
CC(=O)O[C@@H]1[C@@H](O)[C@H](O[C@H]2CC[C@]34C[C@]35C[C@@H](OC(C)=O)[C@]3(C)[C@H]6[C@H](C)C[C@@]7(CC[C@]8(C)O[C@H]78)O[C@H]6C[C@@]3(C)[C@@H]5CC[C@H]4C2(C)C)OC[C@H]1O | 1.41 | > 100 | 35.7 | > 100
CC(=O)OC(C)(C)[C@H]1C[C@@]23O[C@@H]1C[C@@H](C)[C@@H]2[C@@]1(C)CC[C@@]24C[C@@]25CC[C@H](O)C(C)(C)[C@@H]5CC[C@H]4[C@]1(C)[C@H]3O | 20.3 | > 100 | > 100 | > 100
C[C@@H]1C[C@H]2O[C@@]3(C[C@@H]2C(C)(C)O)[C@H](O)[C@@]2(C)[C@@H]4CC[C@H]5C(C)(C)C(=O)CC[C@@]56C[C@@]46CC[C@]2(C)[C@@H]13 | 5.51 | > 100 | 15.4 | 72
CC(=O)O[C@@H]1C[C@@]23C[C@@]24CC[C@H](O)C(C)(C)[C@@H]4CC[C@H]3[C@]2(C)C[C@@H]3O[C@@]4(CC[C@@]5(C)O[C@@H]45)C[C@@H](C)[C@@H]3[C@@]12C | 27.7 | > 100 | 35.4 | 82.2
CC(=O)O[C@@H]1CO[C@@H](O[C@H]2CC[C@]34C[C@]35CC[C@]3(C)[C@H]6[C@H](C)C[C@H]7O[C@@]6(C[C@@H]7C(C)(C)OC(C)=O)[C@H](O)[C@@]3(C)[C@@H]5CC[C@H]4C2(C)C)[C@H](O)[C@H]1O | 2.8 | > 100 | 26.1 | > 100
C/C=C/C(=O)O[C@H]1[C@H](O[C@H]2CC[C@]34C[C@]35CC[C@]3(C)[C@H]6[C@H](C)C[C@H]7O[C@@]6(C[C@@H]7C(C)(C)OC(C)=O)[C@H](O)[C@@]3(C)[C@@H]5CC[C@H]4C2(C)C)OC[C@@H](O)[C@@H]1O | 6.37 | > 100 | 78.5 | 53.8
CC(=O)O[C@@H]1C[C@@]23C[C@@]24CC[C@H](O[C@@H]2OC[C@@H](O)[C@H](O)[C@H]2O)C(C)(C)[C@@H]4CC[C@H]3[C@]2(C)C[C@@H]3OC(C(=O)C(C)C)=C[C@@H](C)[C@@H]3[C@@]12C [ASIATICOSIDE A] | 4.02 | > 100 | 49.4 | 54.8
C/C=C/C(=O)O[C@@H]1CO[C@@H](O[C@H]2CC[C@]34C[C@]35CC[C@]3(C)[C@H]6[C@H](C)C[C@H]7O[C@@]6(C[C@@H]7C(C)(C)OC(C)=O)[C@H](O)[C@@]3(C)[C@@H]5CC[C@H]4C2(C)C)[C@H](O)[C@H]1O | 1.29 | > 100 | > 100 | > 100
